In patent publication US11021518B2, “Theta defensin analogs” (The University of Southern California, priority 2019, dated 2021):
Bridge positions count the residues as written; N and C are the ends. Peptide text beside a SMILES is read from it.

Experiments:
[1] = system: carbapenem resistant strain of Klebsiella pneumoniae (KPC+-Kp BAA-1705 (ATCC)); assay: murine carbapenem resistant Klebsiella pneumoniae sepsis model, survival; type: in vivo, BALB/c mice; conditions: for survival (FIG. 3 right panel): 0.5 mg/kg i.p. 1 hour post infection; for Kp sepsis % survival at 5 mg/kg: BALB/c mice, i.p. infection, peptide 5 mg/kg i.p. 1 hour post infection; for survival (FIG. 3 left panel): 5 mg/kg i.p. 1 hour post infection, sham controls 25% survival; for therapeutic effect on survival (FIG. 4): 1 hour post infection
Experimental: BALB/c mice were infected interperitoneally with 3-5×10^8 CFU of a carbapenem resistant strain of Klebsiella pneumoniae (KPC+-Kp BAA-1705 (ATCC)) and treated with peptide one hour post infection. […] P-values were determined by Fisher's exact test. The therapeutic peptides were provided intraperitoneally 1 hour after induction of sepsis.
BALB/c mice were infected i.p. with KPC+-Kp BAA-1705 (ATCC) and treated with a single dose of MTD12813, at the levels indicated, 1 hour post infection. The significance (P-values determined by Fisher's exact test) of the therapeutic effect for each dose is shown. […] It should be appreciated that 0.5 mg/kg is the lowest dose tested, and that Inventors believe that MTD12813 is effective at still lower doses, for example down to 0.25 mg/kg, […], or 10 μg/kg.

TACE = TACE (Homo sapiens, UniProt P78536); assay: inhibition of TACE; type: biochemical
TACE, sequence (P78536 215-824): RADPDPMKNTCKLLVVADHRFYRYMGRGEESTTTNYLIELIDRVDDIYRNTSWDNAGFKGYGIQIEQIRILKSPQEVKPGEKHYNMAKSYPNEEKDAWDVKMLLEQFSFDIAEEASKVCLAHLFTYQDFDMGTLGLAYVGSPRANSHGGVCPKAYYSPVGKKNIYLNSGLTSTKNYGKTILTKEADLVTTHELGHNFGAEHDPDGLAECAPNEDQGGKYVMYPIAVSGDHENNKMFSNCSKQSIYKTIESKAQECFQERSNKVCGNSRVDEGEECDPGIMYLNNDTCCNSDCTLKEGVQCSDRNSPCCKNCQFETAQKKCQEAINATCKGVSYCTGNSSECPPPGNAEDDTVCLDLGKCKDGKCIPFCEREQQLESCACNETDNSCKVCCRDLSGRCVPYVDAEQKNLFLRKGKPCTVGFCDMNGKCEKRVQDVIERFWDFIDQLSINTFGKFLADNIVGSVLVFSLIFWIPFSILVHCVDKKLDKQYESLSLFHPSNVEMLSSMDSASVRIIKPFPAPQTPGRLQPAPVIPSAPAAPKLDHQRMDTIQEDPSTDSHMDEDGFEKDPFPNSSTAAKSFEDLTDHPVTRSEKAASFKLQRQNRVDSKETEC

TNF-α (TNF) release = assay: suppression of TNF-α (TNF) release; type: cell-based

| Compound | survival (FIG. 3 right panel) [1] | Kp sepsis % survival at 5 mg/kg [1] | IC50 (TACE) | TNF % suppression at 5 mg/kg (TNF-α (TNF) release) | survival (FIG. 3 left panel) [1] | therapeutic effect on survival (FIG. 4) ([1]; single dose 0.5 mg/kg, lowest dose tested) | therapeutic effect on survival (FIG. 4) ([1]; single dose 1.25 mg/kg) |
| --- | --- | --- | --- | --- | --- | --- | --- |
| CC[C@H](C)[C@@H]1NC(=O)[C@@H]2CSSC[C@H](NC(=O)[C@H](CC(C)C)NC(=O)[C@@H]3CSSC[C@H](NC1=O)C(=O)N[C@@H](CCCNC(=N)N)C(=O)N[C@@H](CCCNC(=N)N)C(=O)N[C@@H](CCCNC(=N)N)C(=O)N[C@@H](Cc1ccccc1)C(=O)N3)C(=O)N[C@@H](CCCNC(=N)N)C(=O)N[C@@H](CCCNC(=N)N)C(=O)NCC(=O)N[C@@H](C(C)C)C(=O)N2 [MTD1280] (cyclo(CICRRRFCLCRRGV); disulfide 1-10, 3-8) | essentially identical to that of the sham control | 80-100% | 1280 nM | 98.7% | – | – | – |
| CC[C@H](C)[C@@H]1NC(=O)[C@@H]2CSSC[C@H](NC(=O)[C@H]([C@@H](C)CC)NC(=O)[C@@H]3CSSC[C@H](NC1=O)C(=O)N[C@@H](CCCNC(=N)N)C(=O)N[C@@H](CCCNC(=N)N)C(=O)NCC(=O)N[C@@H](C(C)C)C(=O)N3)C(=O)N[C@@H](CCCNC(=N)N)C(=O)N[C@@H](CCCNC(=N)N)C(=O)NCC(=O)N[C@@H](C(C)C)C(=O)N2 [MTD1281] (cyclo(CICRRGVCICRRGV); disulfide 1-10, 3-8) | – | 40% | 347 nM | 83.0% | – | – | – |
| CC(C)C[C@@H]1NC(=O)[C@@H]2CSSC[C@H](NC(=O)[C@H](CC(C)C)NC(=O)[C@@H]3CSSC[C@H](NC1=O)C(=O)N[C@@H](CCCNC(=N)N)C(=O)N[C@@H](CCCNC(=N)N)C(=O)NCC(=O)N[C@@H](C(C)C)C(=O)N3)C(=O)N[C@@H](CCCNC(=N)N)C(=O)N[C@@H](CCCNC(=N)N)C(=O)NCC(=O)N[C@@H](C(C)C)C(=O)N2 [MTD1284] (cyclo(CLCRRGVCLCRRGV); disulfide 1-10, 3-8) | – | 53.3% | 732 nM | 78.8% | – | – | – |
| CC[C@H](C)[C@@H]1NC(=O)[C@@H]2CSSC[C@H](NC(=O)[C@H](CC(C)C)NC(=O)[C@@H]3CSSC[C@H](NC1=O)C(=O)N[C@@H](CCCNC(=N)N)C(=O)N[C@@H](CCCNC(=N)N)C(=O)N[C@@H](CCCNC(=N)N)C(=O)N[C@@H](Cc1ccccc1)C(=O)N3)C(=O)N[C@@H](CCCNC(=N)N)C(=O)N[C@@H](CCCNC(=N)N)C(=O)NCC(=O)N[C@@H](C)C(=O)N2 [MTD1286] (cyclo(ACICRRRFCLCRRG); disulfide 2-11, 4-9) | – | – | 305 nM | – | – | – | – |
| CC(C)[C@@H]1NC(=O)CNC(=O)[C@H](CCCNC(=N)N)NC(=O)[C@H](CCCNC(=N)N)NC(=O)[C@@H]2CSSC[C@H](NC1=O)C(=O)N[C@@H](C)C(=O)N[C@H]1CSSC[C@H](NC(=O)[C@H](Cc3ccccc3)NC(=O)[C@H](CCCNC(=N)N)NC(=O)[C@H](CCCNC(=N)N)NC(=O)[C@H](CCCNC(=N)N)NC1=O)C(=O)N[C@@H](C)C(=O)N2 [MTD1289] (cyclo(ACRRGVCACRRRFC); disulfide 2-7, 9-14) | – | – | 1670 nM | – | – | – | – |
| CC(C)C[C@@H]1NC(=O)[C@@H]2CSSC[C@H](NC(=O)[C@H](CO)NC(=O)[C@@H]3CSSC[C@H](NC1=O)C(=O)N[C@@H](CCCNC(=N)N)C(=O)N[C@@H](CCCNC(=N)N)C(=O)NCC(=O)N[C@@H](C(C)C)C(=O)N3)C(=O)N[C@@H](CCCNC(=N)N)C(=O)N[C@@H](CCCNC(=N)N)C(=O)N[C@@H](CCCNC(=N)N)C(=O)N[C@@H](Cc1ccccc1)C(=O)N2 [MTD12810] (cyclo(CLCRRGVCSCRRRF); disulfide 1-10, 3-8) | – | 0% | 1540 nM | 2.0% | – | – | – |
| CC[C@H](C)[C@@H]1NC(=O)[C@@H]2CSSC[C@H](NC(=O)[C@H](CO)NC(=O)[C@@H]3CSSC[C@H](NC1=O)C(=O)N[C@@H](CCCNC(=N)N)C(=O)N[C@@H](CCCNC(=N)N)C(=O)NCC(=O)N[C@@H](C(C)C)C(=O)N3)C(=O)N[C@@H](CCCNC(=N)N)C(=O)N[C@@H](CCCNC(=N)N)C(=O)N[C@@H](CCCNC(=N)N)C(=O)N[C@@H](Cc1ccccc1)C(=O)N2 [MTD12811] (cyclo(CICRRGVCSCRRRF); disulfide 1-10, 3-8) | – | 30% | 1890 nM | 37.5% | – | – | – |
| CC[C@H](C)[C@@H]1NC(=O)[C@@H]2CSSC[C@H](NC(=O)[C@H](CO)NC(=O)[C@@H]3CSSC[C@H](NC1=O)C(=O)N[C@@H](CCCNC(=N)N)C(=O)N[C@@H](CCCNC(=N)N)C(=O)N[C@@H](CCCNC(=N)N)C(=O)N[C@@H](Cc1ccccc1)C(=O)N3)C(=O)N[C@@H](CCCNC(=N)N)C(=O)N[C@@H](CCCNC(=N)N)C(=O)NCC(=O)N[C@@H](C(C)C)C(=O)N2 [MTD12812] (cyclo(CICRRRFCSCRRGV); disulfide 1-10, 3-8) | – | 20% | 1100 nM | 14.9% | – | – | – |
| CC[C@H](C)[C@@H]1NC(=O)[C@@H]2CSSC[C@H](NC(=O)[C@H]([C@@H](C)CC)NC(=O)[C@@H]3CSSC[C@H](NC1=O)C(=O)NCC(=O)N[C@@H](CCCNC(=N)N)C(=O)NCC(=O)N[C@@H](C(C)C)C(=O)N3)C(=O)N[C@@H](CCCNC(=N)N)C(=O)N[C@@H](CCCNC(=N)N)C(=O)N[C@@H](CCCNC(=N)N)C(=O)N[C@@H](C(C)C)C(=O)N2 [MTD12813] (cyclo(CGRGVCICRRRVCI); disulfide 1-6, 8-13) | ~90% | 100% | 546 nM | 95.6% | complete protection | highly effective | as effective as 5 mg/kg |
| CC(C)[C@@H]1NC(=O)CNC(=O)[C@H](CCCNC(=N)N)NC(=O)[C@H](CCCNC(=N)N)NC(=O)[C@@H]2CSSC[C@H](NC1=O)C(=O)N[C@@H](C)C(=O)N[C@H]1CSSC[C@H](NC(=O)[C@H](Cc3ccccc3)NC(=O)[C@H](CCCNC(=N)N)NC(=O)[C@H](CCCNC(=N)N)NC(=O)[C@H](C)NC1=O)C(=O)N[C@@H](C)C(=O)N2 [MTD12815] (cyclo(ACARRFCACRRGVC); disulfide 2-7, 9-14) | – | – | 1180 nM | – | – | – | – |
| RTD-1: naturally occurring rhesus monkey θ-defensin, cyclic octadecapeptide with 3 disulfide bonds (cyclo(GFCRCLCRRGVCRCICTR); disulfide (positions not given here); not fully specified (bridges); also: three disulfide bonds, pairing not given here; listed as Macaca mulatta) [reference compound] | – | – | – | – | 70% | – | – |
